The values below come from patent US9670194B2 (Calitor Sciences, LLC, priority 2013, dated 2017).

Structures are written as SMILES.

One series concerns the target PI3Kδ (Homo sapiens, UniProt O00329). The note with it: Cell, 2006, 125, 733-747; cited from earlier work.
The test system of another series is murine model of asthma. The note with it: ovalbumin-induced airway inflammation; FASEB, 2006, 20: 455-465; cited from earlier work.
The nature of series [1]: Pharmacokinetics after intravenous and oral administration in dogs. Format: in vivo. To be noted: Dog.
Series [2] can be described thus: Compound stability in rat liver microsomes. Format: in vitro ADME. The note with it: pH 7.4.
Series [3] is described as follows: Compound stability in human liver microsomes. The class given is in vitro ADME.
The nature of series [4]: Pharmacokinetics after intravenous and oral administration in mice. To be noted: Mouse. The class given is in vivo.
A short description of series [5]: Pharmacokinetics after intravenous and oral administration in rats. The class given is in vivo, rat.
A short description of series [6]: Pharmacokinetics after intravenous and oral administration in monkeys. The note with it: Monkey. Format: in vivo.
Another series concerns the target PI3K (p110β/p85α) (h) (Homo sapiens (Human), UniProt P42338). Nature of the series: PI3K (p110β/p85α) (h) non-radioactive HTRF kinase assay. The class given is biochemical. A general note: Time-resolved FRET reads energy transfer from a long-lived donor to a nearby acceptor.
A further series concerns the target PI3K (p110α/p85α) (h) (Homo sapiens (Human), UniProt P42336). Nature of the series: PI3K (p110α/p85α) (h) non-radioactive HTRF kinase assay. Format: biochemical.
Another series concerns the target PI3K (p120γ) (h) (Homo sapiens (Human), UniProt P48736). Nature of the series: PI3K (p120γ) (h) non-radioactive HTRF kinase assay. Format: biochemical.
A further series has as its target PI3K (p110δ/p85α) (h) (Homo sapiens (Human), UniProt O00329). Nature of the series: PI3K (p110δ/p85α) (h) non-radioactive HTRF kinase assay. The class given is biochemical.
The test system of series [7] is model of systemic lupus erythematosis. To be noted: Nature Medicine, 2005, 11, 933-935; cited from earlier work.
Series [8] deals with mouse model of rheumatoid arthritis. To be noted: Nature Medicine, 2005, 11, 936-943; cited from earlier work.
[9] abbreviates: plasma, iv dose 1 mg/kg, oral dose generally 10 mg/kg.
The mark [10] stands for this setting: plasma, iv dosing, dose 1 mg/kg.
Where [11] appears, read: plasma, iv dosing, dose 1 mg/kg, read-out: Vss.
[12] abbreviates: rat, plasma, iv dosing, dose 1 mg/kg.

PI3K (p110β/p85α) (h), sequence (P42338 whole entry): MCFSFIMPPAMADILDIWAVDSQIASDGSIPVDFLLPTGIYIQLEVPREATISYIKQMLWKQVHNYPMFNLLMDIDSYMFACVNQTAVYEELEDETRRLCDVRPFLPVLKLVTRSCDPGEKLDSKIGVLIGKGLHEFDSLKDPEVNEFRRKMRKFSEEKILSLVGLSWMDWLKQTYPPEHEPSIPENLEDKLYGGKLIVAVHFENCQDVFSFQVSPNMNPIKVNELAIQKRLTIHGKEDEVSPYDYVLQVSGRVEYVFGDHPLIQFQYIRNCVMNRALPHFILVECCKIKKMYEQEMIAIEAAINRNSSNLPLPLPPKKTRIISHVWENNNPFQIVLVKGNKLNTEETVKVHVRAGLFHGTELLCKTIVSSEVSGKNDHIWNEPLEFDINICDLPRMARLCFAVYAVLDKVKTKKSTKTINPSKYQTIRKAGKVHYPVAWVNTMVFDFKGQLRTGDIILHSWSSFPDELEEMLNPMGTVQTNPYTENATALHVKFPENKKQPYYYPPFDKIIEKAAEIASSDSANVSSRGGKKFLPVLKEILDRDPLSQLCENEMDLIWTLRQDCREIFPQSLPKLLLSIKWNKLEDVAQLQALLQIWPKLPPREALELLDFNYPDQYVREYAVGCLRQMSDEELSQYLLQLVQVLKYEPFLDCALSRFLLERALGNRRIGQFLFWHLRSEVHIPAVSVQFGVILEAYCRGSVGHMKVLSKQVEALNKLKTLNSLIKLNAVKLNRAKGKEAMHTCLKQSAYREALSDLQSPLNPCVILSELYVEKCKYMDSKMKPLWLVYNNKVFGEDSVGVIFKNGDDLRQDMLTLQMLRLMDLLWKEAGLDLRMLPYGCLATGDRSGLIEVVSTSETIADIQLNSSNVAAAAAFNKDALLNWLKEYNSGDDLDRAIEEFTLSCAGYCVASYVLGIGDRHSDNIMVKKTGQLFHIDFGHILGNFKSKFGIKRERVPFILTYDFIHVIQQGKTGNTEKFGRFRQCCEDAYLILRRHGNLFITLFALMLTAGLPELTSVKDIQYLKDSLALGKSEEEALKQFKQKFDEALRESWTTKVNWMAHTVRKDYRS
PI3K (p110β/p85α) (h), sequence (P27986 whole entry partner): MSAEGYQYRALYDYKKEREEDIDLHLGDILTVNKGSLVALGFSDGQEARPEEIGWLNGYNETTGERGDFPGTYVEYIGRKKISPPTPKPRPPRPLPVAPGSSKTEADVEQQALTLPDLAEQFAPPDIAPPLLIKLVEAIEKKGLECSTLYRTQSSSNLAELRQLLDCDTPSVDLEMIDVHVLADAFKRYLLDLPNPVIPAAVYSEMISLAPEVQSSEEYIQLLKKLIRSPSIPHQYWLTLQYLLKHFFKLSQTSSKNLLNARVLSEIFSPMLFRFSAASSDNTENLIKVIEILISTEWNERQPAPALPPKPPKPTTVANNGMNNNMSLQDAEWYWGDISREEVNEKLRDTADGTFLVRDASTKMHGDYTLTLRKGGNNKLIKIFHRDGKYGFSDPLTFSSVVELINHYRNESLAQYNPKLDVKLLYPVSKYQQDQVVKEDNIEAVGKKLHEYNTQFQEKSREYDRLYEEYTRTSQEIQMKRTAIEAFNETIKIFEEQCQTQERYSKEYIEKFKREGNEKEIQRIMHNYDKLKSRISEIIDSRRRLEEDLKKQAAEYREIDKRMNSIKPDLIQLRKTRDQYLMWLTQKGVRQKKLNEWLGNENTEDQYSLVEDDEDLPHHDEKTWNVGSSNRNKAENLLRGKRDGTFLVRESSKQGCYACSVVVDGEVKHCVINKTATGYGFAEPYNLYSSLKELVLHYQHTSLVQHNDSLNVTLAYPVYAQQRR
PI3K (p110α/p85α) (h), sequence (P42336 whole entry): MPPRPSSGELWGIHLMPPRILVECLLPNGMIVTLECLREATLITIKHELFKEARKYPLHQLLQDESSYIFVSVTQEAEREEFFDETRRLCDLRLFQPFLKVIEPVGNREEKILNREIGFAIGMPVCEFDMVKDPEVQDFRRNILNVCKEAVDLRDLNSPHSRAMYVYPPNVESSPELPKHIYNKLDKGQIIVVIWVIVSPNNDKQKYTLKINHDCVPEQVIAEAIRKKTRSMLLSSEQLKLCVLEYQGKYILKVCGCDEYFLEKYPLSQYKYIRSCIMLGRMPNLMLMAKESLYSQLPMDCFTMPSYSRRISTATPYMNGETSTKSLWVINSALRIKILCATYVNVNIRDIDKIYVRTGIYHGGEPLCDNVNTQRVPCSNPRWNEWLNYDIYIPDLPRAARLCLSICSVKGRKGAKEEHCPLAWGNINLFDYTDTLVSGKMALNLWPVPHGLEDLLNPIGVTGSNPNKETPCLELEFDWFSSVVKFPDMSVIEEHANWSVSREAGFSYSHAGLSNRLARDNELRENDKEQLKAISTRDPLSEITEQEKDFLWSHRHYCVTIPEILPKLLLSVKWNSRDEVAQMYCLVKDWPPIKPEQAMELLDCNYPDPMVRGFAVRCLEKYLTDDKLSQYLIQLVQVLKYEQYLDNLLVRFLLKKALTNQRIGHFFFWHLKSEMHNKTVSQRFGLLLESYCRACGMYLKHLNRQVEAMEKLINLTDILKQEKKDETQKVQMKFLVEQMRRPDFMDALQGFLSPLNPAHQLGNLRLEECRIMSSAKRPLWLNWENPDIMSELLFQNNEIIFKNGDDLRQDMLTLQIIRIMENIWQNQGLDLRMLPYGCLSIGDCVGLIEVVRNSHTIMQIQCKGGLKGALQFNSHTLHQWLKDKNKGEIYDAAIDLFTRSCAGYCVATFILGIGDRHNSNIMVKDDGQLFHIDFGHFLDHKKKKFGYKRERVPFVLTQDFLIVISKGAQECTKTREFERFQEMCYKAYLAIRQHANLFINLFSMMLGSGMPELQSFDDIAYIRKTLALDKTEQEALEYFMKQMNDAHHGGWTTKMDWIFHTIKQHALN
PI3K (p110α/p85α) (h), sequence (P27986 whole entry partner): as the sequence (P27986 whole entry partner) above
PI3K (p120γ) (h), sequence (P48736 whole entry): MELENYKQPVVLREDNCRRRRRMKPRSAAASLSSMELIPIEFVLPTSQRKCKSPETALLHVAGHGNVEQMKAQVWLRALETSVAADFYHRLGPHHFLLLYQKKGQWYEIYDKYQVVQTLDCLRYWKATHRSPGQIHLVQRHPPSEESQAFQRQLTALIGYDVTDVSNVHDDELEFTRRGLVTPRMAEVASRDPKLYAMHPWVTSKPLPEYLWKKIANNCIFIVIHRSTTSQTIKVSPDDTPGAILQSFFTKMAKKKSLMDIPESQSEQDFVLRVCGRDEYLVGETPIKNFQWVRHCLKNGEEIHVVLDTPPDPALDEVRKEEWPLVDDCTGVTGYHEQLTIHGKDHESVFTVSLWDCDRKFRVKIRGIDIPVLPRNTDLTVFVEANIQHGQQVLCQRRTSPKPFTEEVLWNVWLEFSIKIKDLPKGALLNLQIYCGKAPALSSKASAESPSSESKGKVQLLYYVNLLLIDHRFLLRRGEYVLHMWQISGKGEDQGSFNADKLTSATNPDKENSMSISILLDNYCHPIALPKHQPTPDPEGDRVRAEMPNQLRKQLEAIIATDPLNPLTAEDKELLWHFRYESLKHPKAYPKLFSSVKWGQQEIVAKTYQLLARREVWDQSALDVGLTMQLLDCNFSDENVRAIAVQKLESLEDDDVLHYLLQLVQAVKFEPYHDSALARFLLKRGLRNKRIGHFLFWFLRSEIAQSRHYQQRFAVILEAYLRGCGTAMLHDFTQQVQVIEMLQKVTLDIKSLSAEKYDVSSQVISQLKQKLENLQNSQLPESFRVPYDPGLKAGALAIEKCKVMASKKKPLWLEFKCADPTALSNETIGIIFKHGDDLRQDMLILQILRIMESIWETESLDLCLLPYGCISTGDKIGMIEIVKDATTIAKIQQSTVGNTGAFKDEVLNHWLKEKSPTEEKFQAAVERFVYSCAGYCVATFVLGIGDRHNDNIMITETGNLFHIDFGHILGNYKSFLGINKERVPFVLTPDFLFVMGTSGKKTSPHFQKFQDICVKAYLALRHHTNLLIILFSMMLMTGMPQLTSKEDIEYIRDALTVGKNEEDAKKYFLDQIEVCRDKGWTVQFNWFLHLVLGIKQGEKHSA
PI3K (p110δ/p85α) (h), sequence (O00329 whole entry): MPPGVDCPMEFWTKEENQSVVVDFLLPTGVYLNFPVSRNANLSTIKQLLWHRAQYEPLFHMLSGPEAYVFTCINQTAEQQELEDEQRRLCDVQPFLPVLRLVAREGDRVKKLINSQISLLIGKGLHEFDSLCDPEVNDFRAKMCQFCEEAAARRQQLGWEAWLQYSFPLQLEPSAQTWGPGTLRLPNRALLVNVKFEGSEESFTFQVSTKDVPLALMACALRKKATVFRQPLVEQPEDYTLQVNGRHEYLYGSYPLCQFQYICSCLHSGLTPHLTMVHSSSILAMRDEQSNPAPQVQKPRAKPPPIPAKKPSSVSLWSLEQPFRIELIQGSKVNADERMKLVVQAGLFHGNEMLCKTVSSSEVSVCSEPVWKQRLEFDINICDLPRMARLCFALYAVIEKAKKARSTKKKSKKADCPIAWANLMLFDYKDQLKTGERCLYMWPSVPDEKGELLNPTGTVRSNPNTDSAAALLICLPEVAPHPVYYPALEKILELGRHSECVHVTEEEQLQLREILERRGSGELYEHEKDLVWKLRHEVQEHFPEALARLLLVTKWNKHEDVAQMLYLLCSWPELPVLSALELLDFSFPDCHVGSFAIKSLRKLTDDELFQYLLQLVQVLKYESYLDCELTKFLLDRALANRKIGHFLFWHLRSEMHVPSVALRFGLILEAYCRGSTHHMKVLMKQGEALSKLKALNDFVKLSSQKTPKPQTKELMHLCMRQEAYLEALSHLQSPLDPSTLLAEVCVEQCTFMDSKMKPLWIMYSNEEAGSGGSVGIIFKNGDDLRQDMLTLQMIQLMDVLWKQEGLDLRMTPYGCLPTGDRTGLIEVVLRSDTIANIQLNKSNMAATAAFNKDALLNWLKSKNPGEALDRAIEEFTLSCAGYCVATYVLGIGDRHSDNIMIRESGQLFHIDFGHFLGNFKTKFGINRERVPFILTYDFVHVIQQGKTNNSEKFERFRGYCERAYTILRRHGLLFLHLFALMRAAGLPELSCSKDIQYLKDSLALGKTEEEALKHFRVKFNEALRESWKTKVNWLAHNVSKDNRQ
PI3K (p110δ/p85α) (h), sequence (P27986 whole entry partner): as the sequence (P27986 whole entry partner) above

In the case of `Cc1ccccc1-n1c(Cn2cnc3c(N)ncnc32)nc2cccc(C)c2c1=O` [IC87114], the “inhibits PI3Kδ” value at PI3Kδ is given as “high nanomolar range (triple digit)”. For the same compound, the “inflammation and disease in a murine model of asthma” value in the series on murine model of asthma was “significantly ameliorate inflammation and disease”.

By CL/F is commonly meant clearance divided by bioavailability, as obtained after extravascular dosing. A word on the bioavailability: it is dose-corrected exposure relative to a reference, in per cent. A low value points to little systemic uptake. The term AUC(0-t) denotes exposure summed from dosing to a finite time, without extrapolation to infinity. High values mean more exposure, low ones less exposure. The term half-life denotes the time in which the quantity being followed falls by half. A lower half-life goes with fast loss. As usually defined, the CLint scaled is the capacity of the preparation to metabolise the compound, expressed as a volume cleared per time. Broadly, the IC50 is the concentration at which inhibition is half-maximal. `Cc1noc(-c2c(N)ncnc2N[C@@H](C)c2nc3cccc(Cl)c3c(=O)n2-c2ccccc2)n1` [Ex. 65, (S)-2-(1-((6-amino-5-(3-methyl-1,2,4-oxadiazol-5-yl)pyrimidin-4-yl)amino)ethyl)-5-chloro-3-phenylquinazolin-4(3H)-one]: the apparent clearance CL/F in series [1] (iv dosing, dose 1 mg/kg) came to 0.37 L/h/kg; in [4] (iv dosing, dose 1 mg/kg), 1.90 L/h/kg; in series [6] (iv dosing, dose 1 mg/kg), 0.92 L/h/kg. Further, the bioavailability in [1] (setting [9]) amounted to 24.8%; in series [4] (plasma, iv dose 1 mg/kg, oral dose generally 5 or 10 mg/kg) it was 33.3%; in series [5] (rat, plasma, iv dose 1 mg/kg, oral dose generally 5 or 10 mg/kg) it was 88.7%; in [6] (setting [9]), 10%. Also, the area under the curve AUC(0-t) was determined as 2690 ng·h/mL in [1] (setting [10]), 527 ng·h/mL in series [4] (setting [10]), 260 ng·h/mL in [5] (setting [12]) and 1060 ng·h/mL in series [6] (setting [10]). For the same compound, the half-life was 636 min in series [1] (setting [10]), 47.4 min in [4] (setting [10]), 54.2 min in [5] (setting [12]) and 403 min in [6] (setting [10]). The Vd stood at 4.25 L/kg in series [1] (setting [11]); 0.84 L/kg in [4] (setting [11]); 9.09 L/kg in series [5] (rat, plasma, iv dosing, dose 1 mg/kg, read-out: Vss); 4.2 L/kg in series [6] (setting [11]). For the same compound, the half-life at 5 μM in [2] (rat liver microsomes 0.5 mg protein/mL, compound 5 μM, NADPH 1.0 mM, 37° C.) was determined as 32.6 min; in series [3] (human liver microsomes 0.5 mg protein/mL, compound 5 μM, NADPH 1.0 mM, 37° C.) it was 33.1 min. In addition, the intrinsic clearance (CLint scaled) at 5 μM in series [2] (rat liver microsomes, in vivo CLint extrapolated) was 76.1 mL/min/kg; in [3] (human liver microsomes, in vivo CLint extrapolated), 52.5 mL/min/kg. The “clearance (CL)” value in series [5] (iv dosing, dose 1 mg/kg) came out at 7.74 L/h/kg. In addition, the half-maximal inhibitory concentration (IC50) came to 154 nM on PI3K (p110β/p85α) (h), 1010 nM on PI3K (p110α/p85α) (h), 37 nM at PI3K (p120γ) (h) and 2 nM on PI3K (p110δ/p85α) (h).

Consider `O=C1NC(=O)/C(=C\c2ccc3nccnc3c2)S1` [AS 605240], for which, in series [7], the “onset of disease in a model of systemic lupus erythematosis” value is on record as “delay onset of disease”. In [8], the “efficacy in a mouse model of rheumatoid arthritis” value is on record as “efficacious”.
